Publication PMC9505732, “Chemistry and Bioactivity of the Deep-Water Antarctic Octocoral Alcyonium sp” (Marine Drugs, 2022)
Converted amounts (≈) assume the structure as drawn.

Legend:
[1] = test system: ESKAPE panel of bacterial pathogens; test: ESKAPE panel antibacterial screen; format: cell-based
[2] = test system: Leishmania donovani; test: Leishmania donovani infected macrophage assay; format: cell-based; conditions: read-out: IC50 against Leishmania donovani
Description: (§1) The Leishmania donovani infected macrophage assay and cytotoxicity screen were conducted as previously described.

[3] = Cytotoxicity screen against Leishmania host cell line; format: cell-based; conditions: mouse, J774.A1 macrophages
Description: as §1

[4] = MTT cytotoxicity toward human liver cells; format: cell-based; conditions: human, HepG2 cells; host cell line HepG2, MTT, 24 h incubation
Description: (§2) The cytotoxicity of the metabolites to human liver cells and kidney cells was determined using an MTT based-In Vitro Toxicology Assay Kit (Sigma–Aldrich, St. Louis, MO, USA) following the manufacturing instructions. The human kidney HEK293T cells and the human liver HEPGZ cells were used for the evaluation in this study. Both cell samples were maintained and suspended in Dulbecco’s Modified Eagle Medium (DMEM with 4.5 g/L glucose, L-glutamine and sodium pyruvate, Corning, Manassas, VA, USA) containing 10% fetal bovine serum (Thermo Scientific) and 1% penicillin/streptomycin at 37 °C under 5% CO2 atmosphere. The cells were plated on a 96-well plate with approximately 5 × 10^3–1 × 10^4 cells in each well, and incubated at 37 °C overnight. After that, each of the selected extracts from the antimicrobial susceptibility test was added to the wells and incubated with the cells at a series of 2-fold diluted concentrations ranging from 128 μg/mL to 0.125 μg/mL. […] After that, the liquid in each well of the plate was removed carefully and thoroughly, then the cells in the wells were treated with 100 μL of DMSO, and incubated at 37 °C for 15 m. […] Bio Tek Instruments, Inc. Winooski VT). Cells treated with vancomycin, a common option for treating CDI in clinical settings, were also included in the MTT tests as a control. Cell survival and the IC50 were calculated according to the method used in a previous publication: Survival of cells (%) = Drug-treated group OD540/control group OD540 × 100. The IC50 value was calculated as follows: lgIC50 = Xm − I [P − (3 − Pm − Pn)/4], where Xm was the log maximum dose, I was the log (maximum dose/adjacent dose), P was the sum of the positive response rate, Pm was the maximum positive response rate, and Pn was the minimum positive response rate.

[5] = MTT cytotoxicity toward human kidney cells; format: cell-based; conditions: human, HEK293T cells; host cell line HEK293T, MTT, 24 h incubation
Description: as §2

[6] = test system: C. difficile UK6; test: microbe, parasite or virus in culture; format: cell-based, Clostridium difficile; conditions: Clostridioides difficile, UK6, 48 h, read-out: MIC against C. difficile
Description: The screening against C. difficile was performed in two steps. In step 1, overnight culture of a hyper-virulent clinical strain C. difficile UK6 was inoculated into a fresh BHIS medium at a volume ratio of 1:1000. After pre-incubation at 37 °C under an anaerobic atmosphere for 2 h, the bacterial culture was divided into a sterile 96-well plate and each well contained 192 μL of bacterial culture. Then, 8 μL of each extract was added to each well of the plate, mixed thoroughly, and incubated at 37 °C in an anaerobic chamber for 48 h. Control groups of 200 μL of BHIS medium only, 200 μL of bacterial culture only, and 192 μL of bacterial culture in 8 μL of DMSO were also included in separate columns within each plate. […] Serial dilutions of each extract (400 μg/mL, 200 μg/mL, 100 μg/mL, 50 μg/mL, 20 μg/mL, 10 μg/mL, 5 μg/mL, and 2 μg/mL) were prepared in a fresh BHIS medium. Then, 100 μL of each extract dilution was added to 100 μL of bacterial culture (pretreated as described), mixed well, and incubated at 37 °C in an anaerobic chamber for 48 h. Control groups including wells containing fresh medium only and bacterial culture only were also included as described. Activity was determined as +/− (clear or turbid (OD600) culture). The MICs of the three recommended antibiotics metronidazole, vancomycin, and fidaxomicin against C. difficile UK6 were also determined using broth microdilution methodology.

[7] = test system: HepG2 cells; test: MTT cytotoxicity toward human liver cells; format: cell-based; conditions: at the same concentrations alcyopterosins were assayed
Description: as §2

[8] = test system: HEK293T cells; test: MTT cytotoxicity toward human kidney cells; format: cell-based; conditions: at the same concentrations alcyopterosins were assayed
Description: as §2

IC50 [2] [µM] | SMILES | activity against the ESKAPE panel of bacterial pathogens [1] | MIC [6] [µM] | other results
2.4 | Cc1cc2c(c3c1[C@@H](CCl)OC3=O)CC(C)(C)[C@@H]2O [alcyopterosin L] | – | – | –
13 | Cc1cc2c(c(C)c1CCO[N+](=O)[O-])CC(C)(C)C2=O [alcyopterosin C] | – | – | –
1.2 | CC(=O)OCCc1c(C)cc2c(c1COC(C)=O)CC(C)(C)C2 [4,12-Bis(acetyl)alcyopterosin O, 4,12-bis(acetyl)alcyopterosin O] | – | – | –

Continued, compound first:

SMILES | IC50 [2] [µM] | activity against the ESKAPE panel of bacterial pathogens [1] | MIC [6] [µM] | other results
CC(=O)O[C@@H]1[C@H](OC(C)=O)[C@H]([C@H](C)CCCC(C)C)[C@@]2(C)C[C@@H](OC(C)=O)[C@H]3[C@@H](C[C@@H](O)[C@H]4CC=CC(=O)[C@]34C)[C@H]12 [alcyosterone] | 1.5 | inactive | – | –
CCCCCCCCCCCCCCCCOP(=O)([O-])OCC[N+](C)(C)C [miltefosine, reference compound] | 6.2 | – | – | –
Cc1cc2c(c3c1[C@@H](CO[N+](=O)[O-])OC3=O)CC(C)(C)C2 [Alcyopterosin E] | 3.1 | inactive | 6.9 (≈ 2.01 µg/mL) | IC50 [3]: 62 µM; CC50 at 24 h [4]: 331 µM; CC50 at 24 h [5]: 570 µM
Cc1cc2c(c3c1[C@@H](CO)OC3=O)CC(C)(C)C2 [Alcyopterosin V] | 7 | inactive | 8.1 (≈ 2 µg/mL) | IC50 [3]: 110 µM; CC50 at 24 h [4]: 288 µM; CC50 at 24 h [5]: 220 µM
CN[C@H](CC(C)C)C(=O)N[C@H]1C(=O)N[C@@H](CC(N)=O)C(=O)N[C@H]2C(=O)N[C@H]3C(=O)N[C@H](C(=O)N[C@H](C(=O)O)c4cc(O)cc(O)c4-c4cc3ccc4O)[C@H](O)c3ccc(c(Cl)c3)Oc3cc2cc(c3O[C@@H]2O[C@H](CO)[C@@H](O)[C@H](O)[C@H]2O[C@H]2C[C@](C)(N)[C@H](O)[C@H](C)O2)Oc2ccc(cc2Cl)[C@H]1O [Vancomycin, reference compound] | – | – | 0.34 (≈ 0.493 µg/mL) | toxicity to host cells HepG2 [7]: non-toxic; toxicity to host cells HEK293T [8]: non-toxic
